Values of other authors, collected in patent US20260115176A1, “ALLOSTERIC MODULATORS OF CANNABINOID RECEPTORS AND METHODS OF TREATING NEUROPATHIC PAIN” (The Board of Trustees of the Leland Stanford Junior …, priority 2020, published 2026).

Tested on: rodent model of neuropathic pain
Details: background statement

Cc1ccc2c(C(C[N+](=O)[O-])c3cccs3)c(-c3ccccc3)[nH]c2c1 (centres unmarked) [ZCZ-011]
efficacy in rodent model of neuropathic pain: could treat a rodent model of neuropathic pain | psychoactive or hypothermic effects: without psychoactive or hypothermic effects
